Laboratory results reported in US12679839B2, “Cyclin-dependent kinase 7 (CDK7) non-covalent inhibitors” (JANSSEN PHARMACEUTICA NV, priority 2020, dated 2026).

molecular target: T1, CDK7/Cyclin H/MAT-1 complex (Homo sapiens, UniProt P50613); test: Absorbance kinetic assay (20 nM CDK7/Cyclin H/MAT-1 complex); format: biochemical; settings: read-out: CDK7 (20 nM) pIC50 (converted)
T1 construct: Human CDK7 (amino acids 1-346); His6 (N); TEV protease cleavage site (N); made in house; host or cells: baculovirus-SF9 insect cells
T1 sequence (P50613 whole entry, the tested form may be a part): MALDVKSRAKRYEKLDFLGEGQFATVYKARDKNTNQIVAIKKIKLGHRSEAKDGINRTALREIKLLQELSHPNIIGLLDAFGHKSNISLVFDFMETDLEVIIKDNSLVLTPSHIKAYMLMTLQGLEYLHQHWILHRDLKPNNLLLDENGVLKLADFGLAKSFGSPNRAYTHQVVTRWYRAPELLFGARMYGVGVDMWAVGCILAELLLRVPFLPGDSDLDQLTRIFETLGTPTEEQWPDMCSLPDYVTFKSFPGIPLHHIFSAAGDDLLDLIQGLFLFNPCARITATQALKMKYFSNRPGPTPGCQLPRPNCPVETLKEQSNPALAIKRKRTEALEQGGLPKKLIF
T1 sequence (P51946 whole entry partner, the tested form may be a part): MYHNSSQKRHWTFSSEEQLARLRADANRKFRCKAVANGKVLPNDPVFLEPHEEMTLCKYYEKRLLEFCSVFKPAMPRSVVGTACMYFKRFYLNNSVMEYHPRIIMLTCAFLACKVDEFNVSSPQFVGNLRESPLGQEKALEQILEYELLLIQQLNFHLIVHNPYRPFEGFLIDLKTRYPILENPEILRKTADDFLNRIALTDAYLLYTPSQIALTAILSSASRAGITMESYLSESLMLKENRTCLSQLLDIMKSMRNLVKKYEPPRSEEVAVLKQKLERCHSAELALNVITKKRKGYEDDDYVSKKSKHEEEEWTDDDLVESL
T1 sequence (P51948 whole entry partner, the tested form may be a part): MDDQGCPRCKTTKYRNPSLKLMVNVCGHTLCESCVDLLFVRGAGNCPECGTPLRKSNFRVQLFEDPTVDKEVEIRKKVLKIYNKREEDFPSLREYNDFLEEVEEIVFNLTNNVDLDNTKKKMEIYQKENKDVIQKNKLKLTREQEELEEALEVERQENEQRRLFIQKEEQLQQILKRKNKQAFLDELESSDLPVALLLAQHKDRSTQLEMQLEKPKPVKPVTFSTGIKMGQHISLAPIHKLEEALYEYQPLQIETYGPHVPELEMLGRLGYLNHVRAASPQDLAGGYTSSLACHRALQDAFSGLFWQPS
In short: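 Trimeric complex (His6-TEV CDK7 1-346, MAT1 1-309, cyclin H 1-323) from Sf9 cells, at 20 nM, phosphorylating RNA Pol II-derived CDK7/9-tide; ADP coupled via PK/LDH to NADH depletion read at 340 nm every 2 min for 8 h. Steady-state slopes gave % inhibition; IC50 from 11-point Hill fit.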

IC50 [nM] | Structure (SMILES)
9.77 | C[C@@H]1Cc2cnc(NC3CCOCC3)nc2CN1C(=O)[C@H]1CCN(C)C[C@@H]1c1ccc(Cl)cc1 (relative stereo) [Compound 132]
< 20 | C[C@@H]1Cc2cnc(N[C@H]3CCOC(C)(C)C3)nc2CN1C(=O)[C@H]1CCN(C)C[C@@H]1c1ccccc1 (relative stereo) [Compound 39]
11.5 | C[C@@H]1Cc2cnc(NC3CCOCC3)nc2CN1C(=O)[C@H]1CCN(C)C[C@@H]1C (relative stereo) [Compound 146]
< 9.77 | Cc1cccc([C@H]2CN(C)CC[C@@H]2C(=O)N2Cc3nc(NC4CCOCC4)ncc3C[C@H]2C)c1 (relative stereo) [Compound 134]
< 9.77 | C[C@@H]1Cc2cnc(N[C@H]3CCCNC3)nc2CN1C(=O)[C@H]1CCN(C)C[C@@H]1C(F)(F)F (relative stereo) [Compound 144]
105 | Cc1cc([C@@H]2CN(C)CC[C@H]2C(=O)N2Cc3nc(NC4CCOCC4)ncc3C[C@H]2C)ccn1 (relative stereo) [Compound 102]
12.3 | C[C@@H]1Cc2cnc(NC3CCOCC3)nc2CN1C(=O)[C@H]1CCN(C)C[C@@H]1c1cccc(F)c1 (relative stereo) [Compound 133]
< 9.77 | C[C@@H]1Cc2cnc(NC3CCOCC3)nc2[C@H](C)N1C(=O)[C@H]1CCN(C)C[C@@H]1c1ccccc1 (single isomer, unassigned) [Compound 195b]
67.6 | C[C@@H]1CN(C)CC[C@H]1C(=O)N1Cc2nc(NC3CCOCC3)ncc2C[C@H]1C (relative stereo) [Compound 145]
< 9.77 | CO[C@H]1CC[C@H](Nc2ncc3c(n2)CN(C(=O)[C@@H]2CCN(C)C[C@H]2c2ccnc(C)c2)[C@H](C)C3)CC1 (relative stereo) [Compound 105]

Second part, the compound before the results:

Structure (SMILES) | IC50 [nM]
CC1CN(C(=O)[C@H]2CCN(C)C[C@@H]2c2ccccc2)Cc2nc(Nc3cnn(C)c3)ncc21 (mixture of isomers) [Compound 194] | 17.8
[2H]C([2H])([2H])N1CC[C@H](C(=O)N2Cc3nc(NCc4ccccc4)ncc3C[C@H]2C)[C@@H](c2ccccc2)C1 (single isomer, unassigned) [Compound 154] | < 9.77
C[C@@H]1Cc2cnc(N[C@@H]3CCC(=O)N(C)C3)nc2CN1C(=O)[C@H]1CCN(C)C[C@@H]1c1ccccc1 (relative stereo) [Compound 6] | < 9.77
C[C@@H]1Cc2cnc(NCc3ccn(C)n3)nc2CN1C(=O)[C@H]1CCN(C)C[C@@H]1c1cccc(C(F)(F)F)c1 (relative stereo) [Compound 129] | 11.7
CN1CC[C@H](C(=O)N2Cc3nc(NC4CCOCC4)ncc3CC2(C)C)[C@@H](c2ccccc2)C1 (relative stereo) [Compound 189] | 17.8
C[C@@H]1Cc2cnc(NCc3ccn(C)n3)nc2CN1C(=O)[C@H]1CCN(C)C[C@@H]1C(F)(F)F (relative stereo) [Compound 143] | < 9.77
[2H]C([2H])([2H])N1CC[C@@H](C(=O)N2Cc3nc(NCc4ccn(C)n4)ncc3C[C@H]2C)[C@H](c2cccc(C)c2)C1 (single isomer, unassigned) [Compound 148] | < 9.77
C[C@@H]1Cc2cnc(NCc3ccccc3)nc2CN1C(=O)[C@@H]1CCN(C)C[C@H]1C(F)(F)F (relative stereo) [Compound 141] | 39.8
C[C@H]1CN(C(=O)[C@H]2CCN(C)C[C@@H]2c2ccccc2)[C@@H](C)c2nc(NC3CCOCC3)ncc21 (relative stereo) [Compound 181] | 126
C[C@@H]1Cc2cnc(NCc3ccn(C)n3)nc2CN1C(=O)[C@H]1CCN(C)C[C@@H]1c1ccccc1C(F)F (relative stereo) [Compound 139] | 91.2
Cc1cccc([C@@H]2CN(C)CC[C@H]2C(=O)N2Cc3nc(NCc4ccn(C)n4)ncc3C[C@H]2C)c1 (relative stereo) [Compound 136] | 11.5
C[C@@H]1CN(C(=O)[C@H]2CCN(C)C[C@@H]2c2ccccc2)Cc2nc(NC3CCOCC3)ncc21 (relative stereo) [Compound 188] | < 9.77
